According to patent publication US20250163057A1, “DCN-1 MODULATING COMPOUNDS AND METHODS OF USE THEREOF” (Cellarity, Inc., priority 2023, published 2025):
Read-outs that look alike come from different tables or passages of the source.

Columns and labels:
[1] = biological target: DCN1 protein (Homo sapiens (Human), UniProt Q96GG9); assay: Intact Protein MS Analysis with the RapidFire-TOF System (covalent adduct formation); assay type: binding; conditions: MS Emax; 400 nM DCN1, 3 hours at room temperature
Outline: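 Tag-cleaved human DCN1 (400 nM) expressed in E. coli, in 25 mM Tris-HCl, 200 mM NaCl, 1 mM DTT, was incubated with 11 compound concentrations for 3 h at room temperature and quenched with 0.2% formic acid. Intact-protein Q-TOF MS with deconvolution detected the compound adduct mass.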

[2] = biological target: DCN1 (DCUND1) protein PONY domain (Homo sapiens (Human), UniProt Q96GG9); assay: TR-FRET assay, DCN1 binding with FAM-labeled probe
Outline: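 Biotinylated DCN1 PONY domain, labeled with streptavidin-Tb, was competed against a FAM-labeled non-covalent DCN1 inhibitor probe in buffer with TritonX and 200 mM NaCl. Conditions were 5 nM DCN1 with 20 nM FAM-probe, or 0.31 nM DCN1 with 100 nM FAM-plus 800 nM unlabeled probe. The TR-FRET ratio was read at 1, 5 and 24 h (0.1% DMSO).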

[3] = tested on: Cullin-3 (CUL3) neddylation; assay: AlphaLISA assay for Cullin-3 (CUL3) neddylation in TF 1 cells; assay type: cell-based; conditions: Homo sapiens, TF-1, 3 h, 3 hours treatment
Outline: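 TF 1 cells in unsupplemented IMDM treated with compound concentrations for 3 h, then lysed. CUL3 neddylation detected by AlphaLISA (biotinylated anti-NEDD8, anti-CUL3 acceptor beads overnight, streptavidin donor beads 1 h); normalized to vehicle (0%) and 1 μM DI-1548 (100%), IC50 from Hill fits.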

[4] = 24 hr after treatment with compound, read-out: TR FRET IC50 24 hr
[5] = read-out: TR FRET IC50 1 hr, 1 hr after treatment with compound
[6] = TR FRET IC50 1 hr (nM), 1 hr after treatment with compound

Chain of DCN1 (DCUND1) protein PONY domain (Q96GG9 60-248): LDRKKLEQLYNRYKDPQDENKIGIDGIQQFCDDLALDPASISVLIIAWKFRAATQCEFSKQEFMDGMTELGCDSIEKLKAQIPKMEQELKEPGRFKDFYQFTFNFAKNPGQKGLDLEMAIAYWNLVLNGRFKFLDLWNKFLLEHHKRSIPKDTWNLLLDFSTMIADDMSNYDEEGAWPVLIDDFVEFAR
Chain of DCN1 protein (Q96GG9 whole entry): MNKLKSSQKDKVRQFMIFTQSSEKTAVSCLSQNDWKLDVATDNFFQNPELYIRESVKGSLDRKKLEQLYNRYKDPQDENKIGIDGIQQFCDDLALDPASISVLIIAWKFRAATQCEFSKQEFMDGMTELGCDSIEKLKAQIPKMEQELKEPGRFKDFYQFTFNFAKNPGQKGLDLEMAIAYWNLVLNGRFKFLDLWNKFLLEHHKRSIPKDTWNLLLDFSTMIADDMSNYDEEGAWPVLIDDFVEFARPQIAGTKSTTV

Compound	% Adduct Formation [1]	IC50 [2, 4]	IC50 [2, 5]	IC50 [3]	IC50 [2, 6]
CCN1C(=O)[C@@H](NC(=O)c2cccc(C(F)(F)F)c2)[C@@H](c2ccc(F)cc2)c2c(C(=O)N(CC#N)CCN3CCN(C4COC4)CC3)nn(-c3ccccc3)c21 [Compound I-323]	+++ (MS Emax % adduct formation greater than 80.0 and less than or equal to 100.0)	≤ 200 nM	≤ 200 nM	≤ 100 nM	–
CCN1C(=O)[C@@H](NC(=O)c2cccc(C(F)(F)F)c2)[C@@H](c2ccc(F)cc2)c2c(C(=O)N3CCS(=O)(=O)CC3C#N)nn(-c3ccccc3)c21 (stereo partly drawn) [Compound I-325]	+++ (MS Emax % adduct formation greater than 80.0 and less than or equal to 100.0)	≤ 200 nM	≤ 200 nM	≤ 100 nM	–
CCN1C(=O)[C@@H](NC(=O)c2cccc(C(F)(F)F)c2)[C@@H](C2CC2)c2c(C(=O)N3[C@H](C#N)C[C@H]4C[C@H]43)nn(-c3ccccc3)c21 [Compound I-326]	+++ (MS Emax % adduct formation greater than 80.0 and less than or equal to 100.0)	≤ 200 nM	≤ 200 nM	≤ 100 nM	–
CCN1C(=O)[C@@H](NC(=O)c2cccc(C(F)(F)F)c2)[C@@H](C2CC2)c2c(C(=O)N3[C@H](C#N)C[C@H]4C[C@H]43)nn(C3CC3)c21 [Compound I-327]	+++ (MS Emax % adduct formation greater than 80.0 and less than or equal to 100.0)	≤ 200 nM	≤ 200 nM	≤ 100 nM	–
CCCn1nc(C(=O)N2[C@H](C#N)C[C@H]3C[C@H]32)c2c1N(CC)C(=O)[C@@H](NC(=O)c1cccc(C(F)(F)F)c1)[C@H]2C1CC1 [Compound I-328]	+++ (MS Emax % adduct formation greater than 80.0 and less than or equal to 100.0)	≤ 200 nM	≤ 200 nM	≤ 100 nM	–
CCN1C(=O)[C@@H](NC(=O)c2cccc(C(F)(F)F)c2)[C@@H](c2ccc(F)cc2)c2c(C(=O)N3[C@H](C#N)C[C@H]4C[C@H]43)nn(C3CCOCC3)c21 [Compound I-329]	+++ (MS Emax % adduct formation greater than 80.0 and less than or equal to 100.0)	≤ 200 nM	≤ 200 nM	≤ 100 nM	–
CCN1C(=O)[C@@H](NC(=O)c2cccc(C(F)(F)F)c2)[C@@H](c2ccc(F)cc2)c2c(C(=O)N3[C@H](C#N)C[C@H]4C[C@H]43)nn(C3CC3)c21 [Compound I-330]	+++ (MS Emax % adduct formation greater than 80.0 and less than or equal to 100.0)	≤ 200 nM	≤ 200 nM	≤ 100 nM	–
CCCn1nc(C(=O)N2[C@H](C#N)C[C@H]3C[C@H]32)c2c1N(CC)C(=O)[C@@H](NC(=O)c1cccc(C(F)(F)F)c1)[C@H]2c1ccc(F)cc1 [Compound I-331]	+++ (MS Emax % adduct formation greater than 80.0 and less than or equal to 100.0)	≤ 200 nM	≤ 200 nM	≤ 100 nM	–
CCN1C(=O)[C@@H](NC(=O)c2cccc(C(F)(F)F)n2)[C@@H](c2ccc(F)cc2)c2c(C(=O)N3CCC[C@H]3C#N)nn(C3CCOCC3)c21 [Compound I-332]	+++ (MS Emax % adduct formation greater than 80.0 and less than or equal to 100.0)	≤ 200 nM	–	≤ 100 nM	200 to 1000 nM
CCN1C(=O)[C@@H](NC(=O)c2cccc(C(F)(F)F)c2F)[C@@H](c2ccc(F)cc2)c2c(C(=O)N3CCC[C@H]3C#N)nn(C3CCOCC3)c21 [Compound I-333]	+++ (MS Emax % adduct formation greater than 80.0 and less than or equal to 100.0)	≤ 200 nM	–	≤ 100 nM	200 to 1000 nM
CCN1C(=O)[C@@H](NC(=O)c2cccc(C(F)(F)F)c2)[C@@H](c2ccc(F)cc2)c2c(C(=O)N3CCC[C@H]3C#N)nn(-c3cccc(OCCCN(C)C4COC4)c3)c21 [Compound I-335]	+++ (MS Emax % adduct formation greater than 80.0 and less than or equal to 100.0)	≤ 200 nM	–	≤ 100 nM	1000 to 3000 nM
CCN1C(=O)[C@@H](NC(=O)c2cccc(C(F)(F)F)c2)[C@@H](c2ccc(F)cc2)c2c(C(=O)N3CCC[C@H]3C#N)nn(-c3cccc(OCCCN4CCC5(CC4)COC5)c3)c21 [Compound I-336]	+++ (MS Emax % adduct formation greater than 80.0 and less than or equal to 100.0)	≤ 200 nM	≤ 200 nM	≤ 100 nM	–
CCN1C(=O)[C@@H](NC(=O)c2cccc(C(F)(F)F)c2)[C@@H](c2ccc(F)cc2)c2c(C(=O)N3CCC[C@H]3C#N)nn(-c3cccc(OCCCN4CCN(C5COC5)CC4)c3)c21 [Compound I-337]	+++ (MS Emax % adduct formation greater than 80.0 and less than or equal to 100.0)	≤ 200 nM	≤ 200 nM	≤ 100 nM	–
CCN1C(=O)[C@@H](NC(=O)c2cccc(C(F)(F)F)c2)[C@@H](c2ccc(F)cc2)c2c(C(=O)N3CCC[C@H]3C#N)nn(-c3cccc(OCCCN4CCOCC4)c3)c21 [Compound I-338]	+++ (MS Emax % adduct formation greater than 80.0 and less than or equal to 100.0)	≤ 200 nM	–	≤ 100 nM	1000 to 3000 nM
CCN1C(=O)[C@@H](NC(=O)c2cccc(C(F)(F)F)c2)[C@@H](c2ccc(F)cc2)c2c(C(=O)N3CCC[C@H]3C#N)nn(-c3cccc(OCCN4CCOCC4)c3)c21 [Compound I-339]	+++ (MS Emax % adduct formation greater than 80.0 and less than or equal to 100.0)	≤ 200 nM	–	≤ 100 nM	1000 to 3000 nM
CCN1C(=O)[C@@H](NC(=O)c2cccc(C(F)(F)F)c2)[C@@H](c2ccc(F)cc2)c2c(C(=O)N3CCC[C@H]3C#N)nn(-c3cccc(OCCN4CCN(C5COC5)CC4)c3)c21 [Compound I-340]	+++ (MS Emax % adduct formation greater than 80.0 and less than or equal to 100.0)	≤ 200 nM	≤ 200 nM	≤ 100 nM	–
CCN1C(=O)[C@@H](NC(=O)c2cccc(C(F)(F)F)c2)[C@@H](c2ccc(F)cc2)c2c(C(=O)N3CCC[C@H]3C#N)nn(-c3cccc(OCCN4CCC5(CC4)COC5)c3)c21 [Compound I-341]	+++ (MS Emax % adduct formation greater than 80.0 and less than or equal to 100.0)	≤ 200 nM	≤ 200 nM	≤ 100 nM	–
CCN1C(=O)[C@@H](NC(=O)c2cccc(C(F)(F)F)c2)[C@@H](c2ccc(F)cc2)c2c(C(=O)N3CCC[C@H]3C#N)nn(-c3cccc(OCCN4CC5(COC5)C4)c3)c21 [Compound I-342]	+++ (MS Emax % adduct formation greater than 80.0 and less than or equal to 100.0)	≤ 200 nM	≤ 200 nM	≤ 100 nM	–
CCN1C(=O)[C@@H](NC(=O)c2ccn(C(F)(F)F)n2)[C@@H](c2ccc(F)cc2)c2c(C(=O)N3CCC[C@H]3C#N)nn(-c3ccccc3)c21 [Compound I-343, N-((4S,5S)-3-((S)-2-cyanopyrrolidine-1-carbonyl)-7-ethyl-4-(4-fluorophenyl)-6-oxo-1-phenyl-4,5,6,7-tetrahydro-1H-pyrazolo[3,4-b]pyridin-5-yl)-1-(trifluoromethyl)-1H-pyrazole-3-carboxamide]	++ (MS Emax % adduct formation greater than 30.0 and less than or equal to 80.0)	≤ 200 nM	–	≤ 100 nM	1000 to 3000 nM
CCN1C(=O)[C@@H](NC(=O)c2ccn(C(F)(F)F)n2)[C@@H](c2ccc(F)cc2)c2c(C(=O)N3[C@H](C#N)C[C@H]4C[C@H]43)nn(-c3ccccc3)c21 [Compound I-344]	++ (MS Emax % adduct formation greater than 30.0 and less than or equal to 80.0)	≤ 200 nM	–	≤ 100 nM	200 to 1000 nM
CCN1C(=O)[C@@H](NC(=O)c2ccn(C(F)(F)F)n2)[C@@H](c2ccc(F)cc2)c2c(C(=O)N3CCOC[C@H]3C#N)nn(-c3ccccc3)c21 [Compound I-345]	+++ (MS Emax % adduct formation greater than 80.0 and less than or equal to 100.0)	≤ 200 nM	–	≤ 100 nM	200 to 1000 nM
